Test results published in patent publication US4517187A, “1,3,4,6,7-11b-Hexahydro-7-phenyl-2H-pyrazino[2,1-a]isoquinolines methods of preparation, and use as antidepressants” (Pennwalt Corporation, priority 1982, dated 1985).
Counter-ions that a name gives are not always drawn.

Assays:
[1] = target: T1, histamine-stimulated adenylate cyclase (Cavia porcellus, UniProt P47747); test: in vitro inhibition of histamine-stimulated adenylate cyclase (ad. cyc H); format: biochemical; details: smaller numbers indicate greater potency, read-out: ad cyc H rating (molar concentration required to inhibit by 50% the stimulation of adenylate cyclase observed after treatment with histamine)
T1 construct: by the method developed by Kanof and Greengard; from tissue; host or cells: brain homogenate (guinea pig hippocampus/neocortex, inferred from the cited method)

[2] = target: T2, specific binding of tritiated mepyramine ([^3 H]-mepyramine) in brain (Rattus norvegicus, UniProt P31390); test: in vitro inhibition of the specific binding of [3H]-mepyramine in brain; details: brain homogenates, read-out: (^3 H)mepyramine rating (molar concentration required to inhibit by 50% the binding of [^3 H]mepyramine)
T2 construct: rate brain homogenates; from tissue; host or cells: rat brain homogenate

[3] = target: binding of tritiated quinuclidinyl benzylate ([^3 H]-QNB) in brain; set-up: species or system rat; details: in vitro; brain homogenates; read-out: (^3 H)QNB rating (molar concentration required to inhibit by 50% the binding of [^3 H]QNB)

T1 sequence (P47747 whole entry): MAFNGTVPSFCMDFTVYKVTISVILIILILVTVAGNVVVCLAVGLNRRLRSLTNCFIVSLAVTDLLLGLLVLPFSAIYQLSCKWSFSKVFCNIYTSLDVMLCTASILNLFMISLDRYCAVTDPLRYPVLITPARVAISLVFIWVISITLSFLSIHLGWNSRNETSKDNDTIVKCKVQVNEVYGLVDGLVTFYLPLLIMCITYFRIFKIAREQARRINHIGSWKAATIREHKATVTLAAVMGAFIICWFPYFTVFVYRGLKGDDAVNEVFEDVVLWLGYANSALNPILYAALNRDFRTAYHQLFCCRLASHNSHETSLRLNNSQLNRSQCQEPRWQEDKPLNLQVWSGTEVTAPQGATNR
T2 sequence (P31390 whole entry): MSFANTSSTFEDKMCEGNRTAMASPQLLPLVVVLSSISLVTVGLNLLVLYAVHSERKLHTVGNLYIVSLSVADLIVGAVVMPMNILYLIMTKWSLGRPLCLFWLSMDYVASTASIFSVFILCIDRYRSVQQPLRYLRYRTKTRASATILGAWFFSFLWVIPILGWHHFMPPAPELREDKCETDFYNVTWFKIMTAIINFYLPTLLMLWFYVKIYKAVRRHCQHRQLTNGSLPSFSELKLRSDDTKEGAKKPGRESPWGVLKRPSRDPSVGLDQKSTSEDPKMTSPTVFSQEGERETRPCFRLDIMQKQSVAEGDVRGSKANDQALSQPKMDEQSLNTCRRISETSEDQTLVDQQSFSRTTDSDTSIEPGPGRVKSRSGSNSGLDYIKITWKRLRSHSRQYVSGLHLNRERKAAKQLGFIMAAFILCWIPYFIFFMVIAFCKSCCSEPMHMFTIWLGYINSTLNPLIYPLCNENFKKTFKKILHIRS

## CN1CCN2C[C@@H](c3ccccc3)c3ccccc3[C@@H]2C1 (relative stereo) [Example 1, cis-1,3,4,6,7,11b-Hexahydro-2-methyl-7-phenyl-2H-pyrazino[2,1-a]isoquinoline dihydrochloride]
[1]
  IC50: 6800 nM
[2]
  IC50: 20 nM
[3]
  IC50: 250 nM

## CN1CCN2C[C@@H](c3ccccc3)c3ccccc3[C@H]2C1 (relative stereo) [Example 2, trans-1,3,4,6,7,11b-Hexahydro-2-methyl-7-phenyl-2H-pyrazino[2,1-a]isoquinoline dihydrochloride]
[1]
  IC50: > 10000 nM
[2]
  IC50: > 1000 nM
[3]
  IC50: 3300 nM

## CCN1CCN2C[C@@H](c3ccccc3)c3ccccc3[C@@H]2C1 (relative stereo) [Example 3, cis-1,3,4,6,7,11b-Hexahydro-2-ethyl-7-phenyl-2H-pyrazino[2,1-a]isoquinoline dihydrochloride]
[1]
  IC50: > 10000 nM
[2]
  IC50: 340 nM
[3]
  IC50: 1100 nM

## c1ccc([C@@H]2CN3CCNC[C@H]3c3ccccc32)cc1 (relative stereo) [Example 4, cis-1,3,4,6,7,11b-Hexahydro-7-phenyl-2H-pyrazino[2,1-a]isoquinoline dihydrochloride]
[1]
  IC50: > 10000 nM
[2]
  IC50: > 1000 nM
[3]
  IC50: 920 nM
